Results taken from patent EP2150534B1, “ISOQUINOLINONE DERIVATIVES AS NK3 ANTAGONISTS” (H. Lundbeck A/S, priority 2007, dated 2008).
Like-named read-outs stand apart in the source and are kept apart here.

Legend:
human NK3 receptor [1] = biological target: T1, human NK3 receptor (Homo sapiens, UniProt P29371); experiment: NK3 receptor binding assay (SPA-based competition binding with 125I-NKB, membranes of BHK cells)
T1 construct: expressed in transfected cells; membranes prepared from them
T1 sequence (P29371 1-465): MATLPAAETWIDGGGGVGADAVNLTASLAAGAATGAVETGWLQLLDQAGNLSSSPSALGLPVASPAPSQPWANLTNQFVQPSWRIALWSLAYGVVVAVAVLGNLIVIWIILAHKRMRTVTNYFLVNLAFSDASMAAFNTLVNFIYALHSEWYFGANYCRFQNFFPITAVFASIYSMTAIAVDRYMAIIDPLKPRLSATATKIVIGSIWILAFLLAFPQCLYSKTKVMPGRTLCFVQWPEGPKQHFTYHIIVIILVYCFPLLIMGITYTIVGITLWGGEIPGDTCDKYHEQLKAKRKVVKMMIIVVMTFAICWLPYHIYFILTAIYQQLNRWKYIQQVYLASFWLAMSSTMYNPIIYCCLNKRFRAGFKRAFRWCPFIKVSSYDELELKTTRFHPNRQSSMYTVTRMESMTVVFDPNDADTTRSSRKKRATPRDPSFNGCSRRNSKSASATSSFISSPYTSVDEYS
Method: Membranepreparation: BHK cells stably expressing the human NK3 receptor were seeded in harvesting plates in Dulbeccos MEM containing GlutaMax (862 mg/l), 1 mM sodium pyruvate, 10% fetal calf serum, 1% Pen/Strep, I mg/ml G418 and were grown at 34 °C in a humidified atmosphere containing 10% CO2. To increase receptor expression, 10 µM trichotatin A was added to the media 24 hours before harvest of the cells at a confluency of app 90%. Prior to the harvesting, the cells were washed twice with PBS without Mg^2+ og Ca^2+ and subsequently scrapped of in 10 ml PBS pr harvesting plate. The cells suspension were centrifuged at 1500xG in three minutes before resuspension in 15 mM Tris-HCl pH 7,5 buffer containing 2 mM MgCl2; 0,3 mM EDTA and 1 mM EGTA (buffer A). The cell suspention was homogenised and subsequently centrifuged at 40000xG in 30 minutes. The membrane-pellet was resuspended in buffer A containing 250 mM sucrose, alliquoted and stored at - 80°C.
Affinity assay description: The assay was performed as a SPA-based competition-binding assay in a 50 mM Tris pH 7.4 assay buffer containing 120 mM NaCl, 3 mM MnCl2, 40 µg/ml bacitracin, 2 µg/ml Chymostatin, 1 µg/ml Phosphoramidon and 4 µg/ml Leupeptin. App 0.02 nM ^125I-NKB was mixed with test compounds before addition of 4 µg of the homogenised NK3 membrane preparation and 0,025 mg SPA beads in a total volume of 60 µl. The assay plate was subsequently under agitation incubated for 90 min at RT. The plate was centrifugated 10 minutes at 500xG and counted in a topcounter 5 minuttes pr well.
The non-specific binding constituted app 5 % of the total binding.
Data points were expressed in percent of the specific binding of ^125I-NKB and the IC50 values (concentration causing 50 percent inhibition of ^125I-NKB specific binding) were determined by non-linear regression analysis using a sigmoidal variable slope curve fitting. The dissociation constant (Ki) were calculated from the Cheng Prusoff equation (Ki = IG50/(1+(L/KD))), where the concentration of free radioligand L is approximated to the concentration of added ^125I-NKB in the assay (app 0,02 nM).
The KD of ^125I-NKB was determined to be 0,7 nM from three independent saturation assays each performed with duplicate determinations. Bmax was app 2 pmol/mg.

human NK3 receptor [2] = biological target: T1, human NK3 receptor; experiment: NK3 receptor efficacy and potency assay (FLIPR Calcium 4 assay, BHK cells; agonist and antagonist mode versus NKB); format: cell-based; conditions: read-out: Potency cIC50
Method: BHK cells stably expressing the human NK3 receptor were seeded in 100 µl media in black walled clear-base 96-wells plates (Costar) aiming at a confluency of 95-100% at the day of assay. The assay was performed according to the FLIPR Calcium 4 Assay kit (Molecular Devices). At the day of the assay, the media was removed and the cells were washed once with the HBSS buffer (Hanks BSS buffer, pH 7,4 containing 20 mM Hepes) before 100 µl of a solution of the calcium assay reagent dissolved in the HBSS buffer containing 2,5 mM probinicid was added to the cells. The plates were incubated for 60 min at 34°C, 10% CO2 before use in the FLIPR for examination of fluorescence.
For efficacy and potency evaluation of compounds, these were diluted in HBSS buffer prior to test. For test of agonist activity, 25 µl of the diluted compound solution was added and the plate was analyzed for 5 minutes in the FLIPR. […] The plates were subsequently analyzed for 5 minutes before the assay was terminated. The maximal increase in fluorescence over background following each ligand addition was determined.

[3] = table of Example 10, affinity obtained as described in Example 9, read-out: Affinity Ki
[4] = Ki for the NK3 receptor, table of Example 9, 125I-NKB competition binding, read-out: Ki

Compound	Ki (human NK3 receptor [1]; [3]) [nM]	IC50 (human NK3 receptor [2]) [nM]	Ki (human NK3 receptor [1]; [4]) [nM]
Cc1c(C(=O)N[C@H](c2cccc(F)c2)C2CCC2)c2cccc(Cl)c2c(=O)n1-c1ccccc1 [Example 1bh, 8-Chloro-3-methyl-1-oxo-2-phenyl-1,2-dihydro-isoquinoline-4-carboxylic acid [(S)-cyclobutyl-(3-fluoro-phenyl)-methyl]-amide]	21	81	
Cc1c(C(=O)N[C@@H](c2cccc(F)c2)C2CC2)c2cccc(Cl)c2c(=O)n1-c1ccccc1 [Example 1bl, 8-Chloro-3-methyl-1-oxo-2-phenyl-1,2-dihydro-isoquinoline-4-carboylic acid [(R)-cyclopropyl-(3-fluoro-phenyl)-methyl]-amide]	470		
Cc1c(C(=O)N[C@H](c2ccccc2)C2CCC2)c2cccc(Cl)c2c(=O)n1-c1ccccc1 [Example 1bn, 8-Chloro-3-methyl-1-oxo-2-phenyl-1,2-dihydro-isoquinoline-4-carboxylic acid ((S)cyclobutyl-phenyl-methyl)-amide]	23	23	
CC[C@H](NC(=O)c1c(C)n(-c2ccccc2)c(=O)c2c(Cl)cccc12)c1ccccc1 [Example 1i, 8-Chloro-3-methyl-1-oxo-2-phenyl-1,2-dihydro-isoquinoline-4-carboxylic acid ((S)-1-phenyl-propyl)-amide]	41	130	
Cc1c(C(=O)N[C@H](c2cccc(F)c2)C2CC2)c2cccc(Cl)c2c(=O)n1-c1ccccc1 [Example 1t, 8-Chloro-3-methyl-1-oxo-2-phenyl-1,2-dihydro-isoquinoline-4-carboxylic acid [(S)-cyclopropyl-(3-fluoro-phenyl)-methyl]-amide]	27	44	
CC[C@H](NC(=O)c1c(CN(C)C)n(-c2ccccc2)c(=O)c2ccccc12)c1ccccc1 [Example 2a, 3-Dimethylarrtinomethyl-1-oxo-2 phenyl-1,2-dihydro-isoquinoline-4-carboxylic acid ((S)-1-phenyl-propyl)-amide]			180
CC[C@H](NC(=O)c1c(CN2CCCCCC2)n(-c2ccccc2)c(=O)c2ccccc12)c1ccccc1 [Example 2ah, 3-Azepan-1-ylmethyl-1-oxo-2-phenyl-1,2-dihydro-isoquinoline-4-carboxylic acid ((S)-1-phenyl-propyl)-amide]	290	360	
CC[C@H](NC(=O)c1c(CN2CCN(CCN3CCOCC3)CC2)n(-c2ccccc2)c(=O)c2ccccc12)c1ccccc1 [Example 2bm, 3-[4-(2-Morpholin-4-yl-ethyl)-piperazin-1-ylmethyl]-1-oxo-2-phenyl-1,2-dihydro-isoquinoline-4-carboxylic acid ((S)-1-phenyl-propyl)-amide]	8.8	14	8.2
CC[C@H](NC(=O)c1c(CN2CCN(CCN3CCCC3)CC2)n(-c2ccccc2)c(=O)c2ccccc12)c1ccccc1 [Example 2bq, 1-Oxo-2-phenyl-3-[4-(2-pyrrolidin-1-yl-ethyl)-pipcrazin-1-ylmethyl]-1,2-dihydro-isoquinolinc-4-carboxylic acid ((S)-1-phenyl-propyl)-amide]	160	220	
CC[C@H](NC(=O)c1c(CN2CCC(CCN3CCOCC3)CC2)n(-c2ccccc2)c(=O)c2ccccc12)c1ccccc1 [Example 2cw, 3-[4-(2-Morpholin-4-yl-ethyl)-piperidin-1-ylmethyl]-1-oxo-2-phenyl-1,2-dihydro-isoquinoline-4-carboxylic acid ((S)-1-phenyl-propyl)-amide]	8.4	45	
CC[C@H](NC(=O)c1c(CN2CCNC(=O)C2)n(-c2ccccc2)c(=O)c2ccccc12)c1ccccc1 [Example 2df, 1-Oxo-3-(3-oxo-piperazin-1-ylmethyl)-2-phenyl-1,2-dihydro-isoquinoline-4-carboxylic acid ((S)-1-phenyl-propyl)-amide]	340	450	
CC[C@H](NC(=O)c1c(CNCC2CC2)n(-c2ccccc2)c(=O)c2ccccc12)c1ccccc1 [Example 2e, 3-[(Cyclopropylmethyl-amino)-methyl]-1-oxo-2-phenyl-1,2-dihydro-isoquinoline-4-carboxylic acid ((S)-1-phenyl-propyl)-amide]	330	470	
CC[C@H](NC(=O)c1c(CNC(C)(C)C)n(-c2ccccc2)c(=O)c2ccccc12)c1ccccc1 [Example 2ec, 3-(tert-Butylamino-methyl)-1-oxo-2-phenyl-1,2-dihydro-isoquinoline-4-carboxylic acid ((S)-1-phenyl-propyl)-amide]	210	520	
CCC(CO)NCc1c(C(=O)N[C@@H](CC)c2ccccc2)c2ccccc2c(=O)n1-c1ccccc1 (stereo partly drawn) [Example 2eg, 3-[(1-Hydroxymethyl-propylamino)-methyl]-1-oxo-2-phenyl-1,2-dihydro-isoquinoline-4-carboxylic acid ((S)-1-phenyl-propyl)-amide]	240	610	
CC[C@H](NC(=O)c1c(CN2CC[C@H](O)C2)n(-c2ccccc2)c(=O)c2ccccc12)c1ccccc1 [Example 2es, 3-((S)-3-Hydroxy-pyrrolidin-1-ylmethyl)-1-oxo-2-phenyl-1,2-dihydro-isoquinoline-4-carboxylic acid ((S)-1-phenyl-propyl)-amide]	140	240	
CC[C@H](NC(=O)c1c(CN2CCC2)n(-c2ccccc2)c(=O)c2ccccc12)c1ccccc1 [Example 2ey, 3-Azetidin-1-ylmethyl-1-oxo-2-phenyl-1,2-dihydro-isoquinoline-4-carboxylic acid ((S)-1-phenyl-propyl)-amide]	240	480	
CC[C@H](NC(=O)c1c(CN2CCN(c3ccc4ncccc4c3)CC2)n(-c2ccccc2)c(=O)c2ccccc12)c1ccccc1 [Example 2fm, 1-Oxo-2-phenyl-3-(4-quinolin-6-yl-piperazin-1-ylmethyl)-1,2-dihydro-isoquinoline-4-carboxylic acid ((S)-1-phenyl-propyl)-amide]	33	140	
CC[C@H](NC(=O)c1c(CN2CCC(O)(c3cccc(OC)c3)CC2)n(-c2ccccc2)c(=O)c2ccccc12)c1ccccc1 [Example 2gt, 3-[4-Hydroxy-4-(3-methoxy-phenyl)-piperidin-1-ylmethyl]-1-oxo-2-phenyl-1,2-dihydro-isoquinoline-4-carboxylic acid ((S)-1-phenyl-propyl)-amide]	9.2	22	
O=C(NC(c1cccc(F)c1)C1CC1)c1c(CN2CCN(CCc3ccccc3)CC2)n(-c2ccccc2)c(=O)c2ccccc12 (centres unmarked) [Example 2hq, 1-Oxo-3-(4-phenethyl-piperazin-1-ylmethyl)-2-phenyl-1,2-dihydro-isoquinoline-4-carboxylic acid [cyclopropyl-(3-fluoro-phenyl)-methyl]-amide]	10	44	
Cc1c(C(=O)NN(c2ccccc2)c2ccccc2)c2ccccc2c(=O)n1-c1ccccc1 [Example 5a, 3-Methyl-1-oxo-2 phenyl-1,2-dihydro-isoquinoline-4-carboxylic acid N',N'-diphenyl-hydrazide]			55
